Laboratory results reported in PubChem BioAssay AID1963986 (Molecular Pharmacology Branch, DTP, NCI, 2024).
Each block holds one compound with its values, some of them ahead of it.

Tested on: 171881-019-R-J1-PDC tumor spheroid viability
Experiment: Anticancer human tumor 171881-019-R-J1-PDC patient-derived invasive breast carcinoma cell line growth inhibition [PI3K]
Conditions: spheroids with HUVEC and MSC; for viability, T/C: stronger effect = lower value
Procedure, shortened: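 Targeted small molecules plus PI3K inhibitors, half-log dose series from Cmax (default top 10 microM), were applied to heterotypic spheroids of cancer cells with HUVEC and MSCs. Viability indicated growth inhibition.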

[1] = curve of first compound, second compound 0.0316 µM
[2] = curve of first compound, second compound 0.1 µM
[3] = curve of first compound, second compound 0.316 µM
[4] = curve of first compound, second compound 1 µM
[5] = second compound 0.0316 µM, first compound 0.0316 µM
[6] = second compound 0.0316 µM, first compound 0.1 µM
[7] = second compound 0.0316 µM, first compound 0.316 µM
[8] = second compound 0.0316 µM, first compound 1 µM
[9] = second compound 0.0316 µM, first compound 3.16 µM
[10] = second compound 0.0316 µM, first compound 10 µM
[11] = second compound 0.1 µM, first compound 0.0316 µM
[12] = second compound 0.1 µM, first compound 0.1 µM
[13] = second compound 0.1 µM, first compound 0.316 µM
[14] = second compound 0.1 µM, first compound 1 µM
[15] = second compound 0.1 µM, first compound 3.16 µM
[16] = second compound 0.1 µM, first compound 10 µM
[17] = second compound 0.316 µM, first compound 0.0316 µM
[18] = second compound 0.316 µM, first compound 0.1 µM
[19] = second compound 0.316 µM, first compound 0.316 µM
[20] = second compound 0.316 µM, first compound 1 µM
[21] = second compound 0.316 µM, first compound 3.16 µM
[22] = second compound 0.316 µM, first compound 10 µM
[23] = second compound 1 µM, first compound 0.0316 µM
[24] = second compound 1 µM, first compound 0.1 µM
[25] = second compound 1 µM, first compound 0.316 µM
[26] = second compound 1 µM, first compound 1 µM
[27] = second compound 1 µM, first compound 3.16 µM
[28] = second compound 1 µM, first compound 10 µM
[29] = curve of first compound, second compound 0.00316 µM
[30] = curve of first compound, second compound 0.01 µM
[31] = second compound 0.00316 µM, first compound 0.0316 µM
[32] = second compound 0.00316 µM, first compound 0.1 µM
[33] = second compound 0.00316 µM, first compound 0.316 µM
[34] = second compound 0.00316 µM, first compound 1 µM
[35] = second compound 0.00316 µM, first compound 3.16 µM
[36] = second compound 0.00316 µM, first compound 10 µM
[37] = second compound 0.01 µM, first compound 0.0316 µM
[38] = second compound 0.01 µM, first compound 0.1 µM
[39] = second compound 0.01 µM, first compound 0.316 µM
[40] = second compound 0.01 µM, first compound 1 µM
[41] = second compound 0.01 µM, first compound 3.16 µM
[42] = second compound 0.01 µM, first compound 10 µM
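Note: spheroids exposed to compound for 7 days before viability read.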
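Throughout, for viability, T/C: 100% = DMSO vehicle-treated spheroids.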

IC50 [1]: 297 nM
IC50 [2]: 140 nM
IC50 [3]: 34.9 nM
IC50 [4]: < 31.6 nM
IC50 (curve of first compound, second compound 3.16 µM): < 31.6 nM
IC50 (curve of first compound, second compound 10 µM): < 31.6 nM
Compound: Cn1nccc1Nc1nccc(-c2ccn(C(CO)c3ccc(Cl)c(F)c3)c(=O)c2)n1 (centres undefined) + Cc1nc(NC(=O)N2CCCC2C(N)=O)sc1-c1ccnc(C(C)(C)C(F)(F)F)c1
viability, T/C [5]: 89.8%
viability, T/C [6]: 73.2%
viability, T/C [7]: 47.2%
viability, T/C [8]: 32.1%
viability, T/C [9]: 23.1%
viability, T/C [10]: 18.4%
viability, T/C [11]: 81%
viability, T/C [12]: 55.8%
viability, T/C [13]: 36.2%
viability, T/C [14]: 24%
viability, T/C [15]: 18.5%
viability, T/C [16]: 16.2%
viability, T/C [17]: 51.1%
viability, T/C [18]: 37.8%
viability, T/C [19]: 22.6%
viability, T/C [20]: 14.6%
viability, T/C [21]: 10.9%
viability, T/C [22]: 8.35%
viability, T/C [23]: 27.4%
viability, T/C [24]: 20%
viability, T/C [25]: 12.5%
viability, T/C [26]: 7.16%
viability, T/C [27]: 5.6%
viability, T/C [28]: 4.92%
viability, T/C (second compound 3.16 µM, first compound 0.0316 µM): 12.3%
viability, T/C (second compound 3.16 µM, first compound 0.1 µM): 8.08%
viability, T/C (second compound 3.16 µM, first compound 0.316 µM): 4.7%
viability, T/C (second compound 3.16 µM, first compound 1 µM): 3.17%
viability, T/C (second compound 3.16 µM, first compound 3.16 µM): 2.1%
viability, T/C (second compound 3.16 µM, first compound 10 µM): 1.72%
viability, T/C (second compound 10 µM, first compound 0.0316 µM): 2.73%
viability, T/C (second compound 10 µM, first compound 0.1 µM): 2.2%
viability, T/C (second compound 10 µM, first compound 0.316 µM): 1.3%
viability, T/C (second compound 10 µM, first compound 1 µM): 0.88%
viability, T/C (second compound 10 µM, first compound 3.16 µM): 0.68%
viability, T/C (second compound 10 µM, first compound 10 µM): 0.53%

Compound: C[C@@H](NC(=O)c1ncnc(N)c1Cl)c1ncc(C(=O)Nc2cc(C(F)(F)F)c(Cl)cn2)s1
viability, T/C (compound 0.0316 µM): 91.1% [middle of 4 runs]
viability, T/C (compound 0.1 µM): 89.8% [middle of 4 runs]
viability, T/C (compound 0.316 µM): 90.8% [middle of 4 runs]
viability, T/C (compound 1 µM): 83.6% [middle of 4 runs]
viability, T/C (compound 3.16 µM): 72.5% [middle of 4 runs]
viability, T/C (compound 10 µM): 49.5% [middle of 4 runs]

IC50 (curve of compound): 653 nM [middle of 4 runs]
Compound: Cn1cnc2c(F)c(Nc3ccc(Br)cc3Cl)c(C(=O)NOCCO)cc21
viability, T/C (compound 0.00949 µM): 90.4% [middle of 4 runs]
viability, T/C (compound 0.03 µM): 83.8% [middle of 4 runs]
viability, T/C (compound 0.0949 µM): 80.9% [middle of 4 runs]
viability, T/C (compound 0.3 µM): 64.1% [middle of 4 runs]
viability, T/C (compound 0.949 µM): 42.6% [middle of 4 runs]
viability, T/C (compound 3 µM): 19% [middle of 4 runs]

IC50 [29]: > 10000 nM
IC50 [30]: < 31.6 nM
IC50 [1]: < 31.6 nM
IC50 [2]: < 31.6 nM
IC50 [3]: < 31.6 nM
IC50 [4]: < 31.6 nM
Compound: CNC(=O)c1ccc(N2C(=S)N(c3ccc(C#N)c(C(F)(F)F)c3)C(=O)C2(C)C)cc1F + COc1c(OCCCN2CCOCC2)ccc2c3n(c(=NC(=O)c4cnc(N)nc4)nc12)CCN3
viability, T/C [31]: 64%
viability, T/C [32]: 77.1%
viability, T/C [33]: 68.7%
viability, T/C [34]: 80.8%
viability, T/C [35]: 62.1%
viability, T/C [36]: 61.8%
viability, T/C [37]: 46.4%
viability, T/C [38]: 48%
viability, T/C [39]: 53.4%
viability, T/C [40]: 50.3%
viability, T/C [41]: 43.5%
viability, T/C [42]: 43.5%
viability, T/C [5]: 28%
viability, T/C [6]: 27.9%
viability, T/C [7]: 28%
viability, T/C [8]: 24.5%
viability, T/C [9]: 25.8%
viability, T/C [10]: 21.8%
viability, T/C [11]: 9.2%
viability, T/C [12]: 7.58%
viability, T/C [13]: 7.75%
viability, T/C [14]: 8.13%
viability, T/C [15]: 8.01%
viability, T/C [16]: 7.49%
viability, T/C [17]: 2.27%
viability, T/C [18]: 1.99%
viability, T/C [19]: 2.25%
viability, T/C [20]: 2.17%
viability, T/C [21]: 2.25%
viability, T/C [22]: 3.05%
viability, T/C [23]: 1.38%
viability, T/C [24]: 1.14%
viability, T/C [25]: 1.18%
viability, T/C [26]: 1.73%
viability, T/C [27]: 1.02%
viability, T/C [28]: 1.64%

IC50 [29]: 5730 nM
IC50 [30]: 4520 nM
IC50 [1]: < 31.6 nM
IC50 [2]: < 31.6 nM
IC50 [3]: < 31.6 nM
IC50 [4]: < 31.6 nM
Compound: CCCS(=O)(=O)Nc1ccc(F)c(C(=O)c2c[nH]c3ncc(-c4ccc(Cl)cc4)cc23)c1F + COc1c(OCCCN2CCOCC2)ccc2c3n(c(=NC(=O)c4cnc(N)nc4)nc12)CCN3
viability, T/C [31]: 70.6%
viability, T/C [32]: 81.9%
viability, T/C [33]: 94.3%
viability, T/C [34]: 108%
viability, T/C [35]: 93.7%
viability, T/C [36]: 12.9%
viability, T/C [37]: 53.8%
viability, T/C [38]: 60%
viability, T/C [39]: 67.2%
viability, T/C [40]: 83.6%
viability, T/C [41]: 76.5%
viability, T/C [42]: 9.83%
viability, T/C [5]: 29%
viability, T/C [6]: 29.3%
viability, T/C [7]: 32%
viability, T/C [8]: 40.5%
viability, T/C [9]: 45.8%
viability, T/C [10]: 5.59%
viability, T/C [11]: 9.3%
viability, T/C [12]: 10.5%
viability, T/C [13]: 10.9%
viability, T/C [14]: 13.9%
viability, T/C [15]: 17.3%
viability, T/C [16]: 2.6%
viability, T/C [17]: 2.18%
viability, T/C [18]: 2.42%
viability, T/C [19]: 3.05%
viability, T/C [20]: 2.63%
viability, T/C [21]: 3.95%
viability, T/C [22]: 2.09%
viability, T/C [23]: 1.32%
viability, T/C [24]: 1.32%
viability, T/C [25]: 1.47%
viability, T/C [26]: 1.16%
viability, T/C [27]: 1.64%
viability, T/C [28]: 3.34%
